Experimental data published in ChEMBL document CHEMBL2163233, “3-Oxoisoindoline-1-carboxamides: potent, state-dependent blockers of voltage-gated sodium channel Na(V)1.7 with efficacy in rat pain models” (J Med Chem, 2012).
≈ marks a conversion by molar mass, not a printed value. Calls of active or inactive are those of the source. The calls are words filed in the database; no cut-off is given here.

Columns and labels:
cells = conditions: Homo sapiens, HEK293
[1] = biological target: Sodium-dependent noradrenaline transporter (Homo sapiens) (UniProt P23975); conditions: 10 uM
[2] = biological target: 5-hydroxytryptamine receptor 2A (Homo sapiens) (UniProt P28223); conditions: 10 uM
5-hydroxytryptamine receptor 2A (Homo sapiens), sequence (P28223 whole entry): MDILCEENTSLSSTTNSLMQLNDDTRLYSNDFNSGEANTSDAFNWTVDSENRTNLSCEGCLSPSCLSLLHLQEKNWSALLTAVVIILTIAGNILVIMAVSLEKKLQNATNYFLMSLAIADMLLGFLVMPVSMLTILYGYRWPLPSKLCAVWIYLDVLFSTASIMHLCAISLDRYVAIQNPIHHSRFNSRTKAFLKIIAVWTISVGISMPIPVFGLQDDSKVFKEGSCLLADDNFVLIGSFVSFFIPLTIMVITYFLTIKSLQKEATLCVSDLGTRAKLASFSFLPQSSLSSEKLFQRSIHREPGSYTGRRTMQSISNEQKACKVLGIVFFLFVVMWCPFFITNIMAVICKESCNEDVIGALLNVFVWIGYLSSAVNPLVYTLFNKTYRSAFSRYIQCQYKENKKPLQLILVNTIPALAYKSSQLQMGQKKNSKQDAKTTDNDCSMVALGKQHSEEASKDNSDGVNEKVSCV

[3] = biological target: Mu-type opioid receptor (Homo sapiens) (UniProt P35372); conditions: 10 uM
[4] = biological target: Muscarinic acetylcholine receptor M2 (Homo sapiens) (UniProt P08172); conditions: 10 uM
[5] = biological target: Estrogen receptor (Homo sapiens) (UniProt P03372); conditions: 10 uM
[6] = biological target: D(2) dopamine receptor (Homo sapiens) (UniProt P14416); conditions: 10 uM
D(2) dopamine receptor (Homo sapiens), sequence (P14416 whole entry): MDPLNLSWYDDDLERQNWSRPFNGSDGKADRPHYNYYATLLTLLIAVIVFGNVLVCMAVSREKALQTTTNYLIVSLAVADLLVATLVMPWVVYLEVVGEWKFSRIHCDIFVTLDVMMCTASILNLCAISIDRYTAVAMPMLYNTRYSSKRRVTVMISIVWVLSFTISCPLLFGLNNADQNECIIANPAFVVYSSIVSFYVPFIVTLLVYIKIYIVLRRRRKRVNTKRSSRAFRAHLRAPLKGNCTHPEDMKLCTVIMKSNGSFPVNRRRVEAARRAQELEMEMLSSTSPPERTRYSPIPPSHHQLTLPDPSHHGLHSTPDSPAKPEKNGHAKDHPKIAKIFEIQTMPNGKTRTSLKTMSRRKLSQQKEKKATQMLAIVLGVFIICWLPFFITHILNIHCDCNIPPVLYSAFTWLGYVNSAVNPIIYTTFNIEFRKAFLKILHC

[7] = biological target: Beta-1 adrenergic receptor (Homo sapiens) (UniProt P08588); conditions: 10 uM
[8] = biological target: Alpha-2A adrenergic receptor (Homo sapiens) (UniProt P08913); conditions: 10 uM
Alpha-2A adrenergic receptor (Homo sapiens), sequence (P08913 whole entry): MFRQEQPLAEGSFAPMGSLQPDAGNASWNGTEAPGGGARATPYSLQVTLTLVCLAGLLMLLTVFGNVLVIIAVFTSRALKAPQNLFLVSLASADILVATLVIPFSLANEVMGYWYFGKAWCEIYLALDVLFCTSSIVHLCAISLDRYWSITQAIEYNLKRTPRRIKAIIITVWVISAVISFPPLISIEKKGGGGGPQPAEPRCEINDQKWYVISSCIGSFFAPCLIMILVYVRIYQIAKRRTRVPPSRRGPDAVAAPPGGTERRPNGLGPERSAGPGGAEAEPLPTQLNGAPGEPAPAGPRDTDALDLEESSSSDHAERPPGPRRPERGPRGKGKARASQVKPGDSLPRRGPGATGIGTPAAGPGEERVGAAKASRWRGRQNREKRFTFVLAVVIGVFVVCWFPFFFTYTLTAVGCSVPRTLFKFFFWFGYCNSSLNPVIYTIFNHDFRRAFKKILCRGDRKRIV

[9] = biological target: Insulin receptor (Homo sapiens) (UniProt P06213); conditions: 10 uM
[10] = biological target: Alpha-1D adrenergic receptor (Homo sapiens) (UniProt P25100); conditions: 10 uM
[11] = biological target: Nitric oxide synthase 3 (Homo sapiens) (UniProt P29474); conditions: 10 uM
[12] = biological target: Prostaglandin G/H synthase 1 (Homo sapiens) (UniProt P23219); conditions: 10 uM
Prostaglandin G/H synthase 1 (Homo sapiens), sequence (P23219 whole entry): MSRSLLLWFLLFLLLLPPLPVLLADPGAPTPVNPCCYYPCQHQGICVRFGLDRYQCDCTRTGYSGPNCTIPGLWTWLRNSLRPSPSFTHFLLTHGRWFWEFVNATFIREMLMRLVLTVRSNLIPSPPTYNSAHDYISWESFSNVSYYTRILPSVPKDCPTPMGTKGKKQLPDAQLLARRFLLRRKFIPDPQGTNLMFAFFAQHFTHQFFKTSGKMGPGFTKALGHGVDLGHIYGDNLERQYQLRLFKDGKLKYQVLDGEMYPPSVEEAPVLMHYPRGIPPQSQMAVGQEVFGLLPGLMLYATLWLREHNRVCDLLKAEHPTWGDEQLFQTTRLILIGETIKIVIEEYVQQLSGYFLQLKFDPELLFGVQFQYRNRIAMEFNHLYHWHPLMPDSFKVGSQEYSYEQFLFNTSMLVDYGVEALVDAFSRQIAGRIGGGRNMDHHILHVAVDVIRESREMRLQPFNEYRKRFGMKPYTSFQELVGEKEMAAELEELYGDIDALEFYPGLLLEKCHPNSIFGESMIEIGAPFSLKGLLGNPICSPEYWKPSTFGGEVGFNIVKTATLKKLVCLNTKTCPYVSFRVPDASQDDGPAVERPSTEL

[13] = biological target: Acetylcholinesterase (Homo sapiens) (UniProt P22303); conditions: 10 uM
Acetylcholinesterase (Homo sapiens), sequence (P22303 whole entry): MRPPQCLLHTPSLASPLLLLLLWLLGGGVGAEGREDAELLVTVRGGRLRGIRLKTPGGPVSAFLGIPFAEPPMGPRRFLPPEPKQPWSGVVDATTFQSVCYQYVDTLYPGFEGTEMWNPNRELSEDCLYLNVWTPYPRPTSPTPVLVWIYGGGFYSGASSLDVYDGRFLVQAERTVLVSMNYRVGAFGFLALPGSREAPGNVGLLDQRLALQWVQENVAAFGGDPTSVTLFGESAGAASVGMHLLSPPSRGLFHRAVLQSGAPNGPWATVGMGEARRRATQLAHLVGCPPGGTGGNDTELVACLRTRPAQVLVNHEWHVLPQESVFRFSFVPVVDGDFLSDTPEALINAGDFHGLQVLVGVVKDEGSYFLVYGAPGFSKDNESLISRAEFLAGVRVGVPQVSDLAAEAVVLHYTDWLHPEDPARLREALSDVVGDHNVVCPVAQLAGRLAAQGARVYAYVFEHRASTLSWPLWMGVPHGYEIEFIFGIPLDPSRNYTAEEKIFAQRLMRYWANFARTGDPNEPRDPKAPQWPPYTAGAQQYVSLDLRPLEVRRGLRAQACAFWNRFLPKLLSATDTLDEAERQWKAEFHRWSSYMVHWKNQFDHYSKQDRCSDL

[14] = biological target: Glycine receptor subunit alpha-1 (Homo sapiens) (UniProt P23415); conditions: 33 uM
Glycine receptor subunit alpha-1 (Homo sapiens), sequence (P23415 whole entry): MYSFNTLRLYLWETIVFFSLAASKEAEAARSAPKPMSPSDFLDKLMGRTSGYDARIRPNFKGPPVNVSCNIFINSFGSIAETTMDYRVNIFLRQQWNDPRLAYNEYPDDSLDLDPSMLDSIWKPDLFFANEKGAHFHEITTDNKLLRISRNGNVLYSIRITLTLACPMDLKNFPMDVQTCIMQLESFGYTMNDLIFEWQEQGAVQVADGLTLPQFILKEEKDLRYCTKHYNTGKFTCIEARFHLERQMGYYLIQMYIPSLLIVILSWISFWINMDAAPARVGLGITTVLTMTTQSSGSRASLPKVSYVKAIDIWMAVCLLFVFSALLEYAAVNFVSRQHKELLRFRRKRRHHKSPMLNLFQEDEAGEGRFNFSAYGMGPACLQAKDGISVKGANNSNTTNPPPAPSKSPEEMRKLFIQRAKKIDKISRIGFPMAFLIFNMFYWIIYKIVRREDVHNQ

[15] = biological target: Histamine H1 receptor (Homo sapiens) (UniProt P35367); conditions: 10 uM
Histamine H1 receptor (Homo sapiens), sequence (P35367 whole entry): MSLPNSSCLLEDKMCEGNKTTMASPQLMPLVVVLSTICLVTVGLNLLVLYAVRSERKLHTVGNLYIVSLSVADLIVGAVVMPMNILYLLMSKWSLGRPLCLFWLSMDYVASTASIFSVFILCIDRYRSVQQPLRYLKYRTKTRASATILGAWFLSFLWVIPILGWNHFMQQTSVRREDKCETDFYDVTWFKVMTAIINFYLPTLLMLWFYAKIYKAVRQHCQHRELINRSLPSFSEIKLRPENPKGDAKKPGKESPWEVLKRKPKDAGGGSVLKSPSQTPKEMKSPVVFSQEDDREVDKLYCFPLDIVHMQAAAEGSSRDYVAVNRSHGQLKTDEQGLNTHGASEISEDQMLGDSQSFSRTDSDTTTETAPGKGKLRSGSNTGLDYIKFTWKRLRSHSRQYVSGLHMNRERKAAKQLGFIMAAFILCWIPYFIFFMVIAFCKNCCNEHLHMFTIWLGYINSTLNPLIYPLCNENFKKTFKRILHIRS

[16] = biological target: Potassium voltage-gated channel subfamily KQT member 2 (Homo sapiens) (UniProt O43526); conditions: 10 uM
[17] = biological target: Voltage-dependent T-type calcium channel subunit alpha-1H (Homo sapiens) (UniProt O95180); conditions: 31.6 uM
[18] = biological target: Transient receptor potential cation channel subfamily A member 1 (Homo sapiens) (UniProt O75762); conditions: 11 uM
Transient receptor potential cation channel subfamily A member 1 (Homo sapiens), sequence (O75762 whole entry): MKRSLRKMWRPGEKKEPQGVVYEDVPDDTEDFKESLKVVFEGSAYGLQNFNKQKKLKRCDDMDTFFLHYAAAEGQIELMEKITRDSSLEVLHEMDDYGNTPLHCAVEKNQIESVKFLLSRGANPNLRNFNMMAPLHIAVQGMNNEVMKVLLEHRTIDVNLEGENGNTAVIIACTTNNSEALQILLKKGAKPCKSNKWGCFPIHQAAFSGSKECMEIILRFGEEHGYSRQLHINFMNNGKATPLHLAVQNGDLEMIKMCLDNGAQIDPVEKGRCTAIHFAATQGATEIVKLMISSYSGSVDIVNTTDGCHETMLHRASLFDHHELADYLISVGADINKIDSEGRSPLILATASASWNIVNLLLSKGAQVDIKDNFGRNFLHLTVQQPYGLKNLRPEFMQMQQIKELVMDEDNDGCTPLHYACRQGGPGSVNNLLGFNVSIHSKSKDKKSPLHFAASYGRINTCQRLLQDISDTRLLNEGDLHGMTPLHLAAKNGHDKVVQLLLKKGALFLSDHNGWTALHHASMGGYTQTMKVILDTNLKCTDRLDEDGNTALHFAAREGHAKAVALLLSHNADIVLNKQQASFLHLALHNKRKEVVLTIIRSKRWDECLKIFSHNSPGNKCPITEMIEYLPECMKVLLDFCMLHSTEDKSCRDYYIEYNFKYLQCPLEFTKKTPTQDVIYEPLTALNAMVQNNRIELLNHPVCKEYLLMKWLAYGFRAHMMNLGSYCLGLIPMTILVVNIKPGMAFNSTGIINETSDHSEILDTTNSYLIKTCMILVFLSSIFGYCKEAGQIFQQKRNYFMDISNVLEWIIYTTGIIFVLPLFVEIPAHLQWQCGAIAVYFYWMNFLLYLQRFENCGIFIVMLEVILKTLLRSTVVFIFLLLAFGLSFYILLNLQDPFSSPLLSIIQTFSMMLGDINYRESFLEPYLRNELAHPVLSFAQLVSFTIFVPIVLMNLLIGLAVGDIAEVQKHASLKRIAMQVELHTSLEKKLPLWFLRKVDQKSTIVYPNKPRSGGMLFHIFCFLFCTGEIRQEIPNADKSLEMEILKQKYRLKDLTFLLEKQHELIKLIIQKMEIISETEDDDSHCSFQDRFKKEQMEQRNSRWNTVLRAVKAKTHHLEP

[19] = biological target: Potassium voltage-gated channel subfamily A member 5 (Homo sapiens) (UniProt P22460); conditions: 10 uM
Rattus norvegicus [20] = species on record: Rattus norvegicus; conditions: Brain, Brain membranes, 10 uM
in vivo [21] = conditions: Sprague-Dawley, rat, brain/plasma
in vivo [22] = conditions: Sprague-Dawley, rat, po, 10 umol/kg
in vivo [23] = conditions: Sprague-Dawley, rat, po, 10 umol/kg; remark: listed apart in the source
in vivo [24] = conditions: Sprague-Dawley, rat, po, 10 umol/kg; remark: listed apart in the source
in vivo [25] = conditions: Sprague-Dawley, rat, po, 10 umol/kg; remark: listed apart in the source
in vivo [26] = conditions: Sprague-Dawley, rat, po, 10 umol/kg; remark: listed apart in the source
in vivo [27] = conditions: Sprague-Dawley, rat, iv, 3 umol/kg
in vivo [28] = conditions: Sprague-Dawley, rat, iv, 3 umol/kg; remark: listed apart in the source
in vivo [29] = conditions: Sprague-Dawley, rat, iv, 3 umol/kg; remark: listed apart in the source
in vivo [30] = conditions: Sprague-Dawley, rat, iv, 3 umol/kg; remark: listed apart in the source
in vitro [31] = conditions: Sprague-Dawley, rat, plasma
in vitro [32] = conditions: human, microsomes, CLH
in vitro [33] = conditions: rat, microsomes, CLH
Rattus norvegicus [34] = species on record: Rattus norvegicus; assay: animal or person; conditions: Sprague-Dawley, po, read-out: INH
Rattus norvegicus [35] = species on record: Rattus norvegicus; assay: animal or person; conditions: Sprague-Dawley, po, read-out: INH; remark: listed apart in the source
Rattus norvegicus [36] = species on record: Rattus norvegicus; assay: animal or person; conditions: Sprague-Dawley, po, read-out: INH; remark: listed apart in the source
Rattus norvegicus [37] = species on record: Rattus norvegicus; assay: animal or person; conditions: Sprague-Dawley, po, read-out: INH; remark: listed apart in the source
Rattus norvegicus [38] = species on record: Rattus norvegicus; assay: animal or person; conditions: Sprague-Dawley, po, read-out: INH; remark: listed apart in the source
Rattus norvegicus [39] = species on record: Rattus norvegicus; assay: animal or person; conditions: Sprague-Dawley, po, read-out: INH; remark: listed apart in the source
in vitro [40] = conditions: human, Caco-2
Rattus norvegicus [41] = species on record: Rattus norvegicus; assay: animal or person; conditions: Sprague-Dawley, po, read-out: INH; remark: listed apart in the source
Rattus norvegicus [42] = species on record: Rattus norvegicus; assay: animal or person; conditions: Sprague-Dawley, po, read-out: INH; remark: listed apart in the source

SMILES: CN(C)CCC=C1c2ccccc2CCc2ccccc21 [AMITRIPTYLINE]
- IC50 (cells): 12 µM

SMILES: O=C(NCc1ccc(OC(F)(F)F)cc1)C1c2ccccc2C(=O)N1C1CCOCC1 (single isomer, unassigned; enantiomer 2)
- inhibition [1]: inactive
- inhibition [2]: inactive
- inhibition [3]: inactive
- inhibition [4]: inactive
- inhibition [5]: inactive
- inhibition [6]: inactive
- inhibition [7]: inactive
- inhibition [8]: inactive
- inhibition [9]: inactive
- inhibition [10]: inactive
- inhibition [11]: inactive
- inhibition [12]: inactive
- inhibition [13]: inactive
- inhibition [14]: inactive
- inhibition [15]: inactive
- inhibition [16]: inactive
- inhibition [17]: inactive
- inhibition [18]: inactive
- inhibition [19]: inactive
- inhibition (Rattus norvegicus [20]): 79%
- IC50 (cells): > 33 µM
- Kp (in vivo [21]): 1
- bioavailability (in vivo [22]): 20%
- half-life (in vivo [23]): 114 min
- Tmax (in vivo [24]): 18 min
- Cmax (in vivo [25]): 600 nM
- AUC (in vivo [26]): 1.1 µM·h
- clearance (in vivo [27]): 30 mL/min/kg
- half-life (in vivo [28]): 60 min
- Vd (in vivo [29]): 0.8 L/kg
- AUC (in vivo [30]): 1.7 µM·h
- fraction unbound (in vitro [31]): 0.132
- microsomal CLint (in vitro [32]): 15 µL/min/mg
- microsomal CLint (in vitro [33]): < 10 µL/min/mg
- inhibition in vivo at 100 µmol/kg (Rattus norvegicus [34]): 42%
- inhibition in vivo at 30 µmol/kg (Rattus norvegicus [35]): 16%
- inhibition in vivo at 140 µmol/kg (Rattus norvegicus [36]): 30%
- inhibition in vivo at 100 µmol/kg (Rattus norvegicus [37]): 65%
- inhibition in vivo at 100 µmol/kg (Rattus norvegicus [38]): 54%
- inhibition in vivo at 30 µmol/kg (Rattus norvegicus [39]): 34%

SMILES: O=C(NCc1ccc(F)c(C(F)(F)F)c1)C1c2ccccc2C(=O)N1CCc1ncc(F)cn1 (stereo not drawn)
- IC50 (cells): 33 µM
- bioavailability (in vivo [22]): 4%
- half-life (in vivo [23]): 72 min
- Tmax (in vivo [24]): 18 min
- Cmax (in vivo [25]): 100 nM
- AUC (in vivo [26]): 0.2 µM·h
- clearance (in vivo [27]): 32 mL/min/kg
- half-life (in vivo [28]): 24 min
- Vd (in vivo [29]): 0.9 L/kg
- AUC (in vivo [30]): 1.6 µM·h
- Papp (in vitro [40]): 39 ×10⁻⁶ cm/s
- fraction unbound (in vitro [31]): 0.13
- microsomal CLint (in vitro [32]): < 10 µL/min/mg
- microsomal CLint (in vitro [33]): < 10 µL/min/mg
- solubility at 4 h (physchem): 14 µM (≈ 6.67 µg/mL)

SMILES: O=C(NCc1ccc(OC(F)(F)F)cc1)C1c2ccccc2C(=O)N1CCc1ncc(F)cn1 (stereo not drawn)
- bioavailability (in vivo [22]): 44%
- half-life (in vivo [23]): 138 min
- Tmax (in vivo [24]): 18 min
- Cmax (in vivo [25]): 800 nM
- AUC (in vivo [26]): 2.1 µM·h
- clearance (in vivo [27]): 37 mL/min/kg
- half-life (in vivo [28]): 24 min
- Vd (in vivo [29]): 1.1 L/kg
- AUC (in vivo [30]): 1.4 µM·h
- fraction unbound (in vitro [31]): 0.092
- microsomal CLint (in vitro [32]): 53 µL/min/mg
- microsomal CLint (in vitro [33]): < 10 µL/min/mg
- solubility at 4 h (physchem): 25 µM (≈ 11.9 µg/mL)

SMILES: CCCCNc1ccc(C(=O)OCCN(C)C)cc1 [TETRACAINE]
- IC50 (cells): 33 µM

SMILES: O=C(NCc1ccc(OC(F)(F)F)cc1)C1c2ccccc2C(=O)N1C1CCC(F)(F)CC1 (single isomer, unassigned)
- IC50 (cells): > 10 µM

SMILES: O=C(NCc1ccc(OC(F)(F)F)cc1)C1c2c(F)cccc2C(=O)N1CCc1ccccn1 (stereo not drawn)
- microsomal CLint (in vitro [32]): 150 µL/min/mg
- microsomal CLint (in vitro [33]): 10 µL/min/mg
- solubility at 4 h (physchem): 17 µM (≈ 8.05 µg/mL)

SMILES: O=C(NCc1ccc(OC(F)(F)F)cc1)C1c2ccccc2C(=O)N1CCC1CCOCC1 (stereo not drawn)
- microsomal CLint (in vitro [32]): 71 µL/min/mg
- microsomal CLint (in vitro [33]): < 10 µL/min/mg
- solubility at 4 h (physchem): 20 µM (≈ 9.25 µg/mL)

SMILES: O=C(NCc1ccc(OC(F)(F)F)cc1)C1c2ccccc2C(=O)N1CCc1ccccn1 (stereo in doubt; 16A)
- inhibition [1]: inactive
- inhibition [2]: inactive
- inhibition [3]: inactive
- inhibition [4]: inactive
- inhibition [5]: inactive
- inhibition [6]: inactive
- inhibition [7]: inactive
- inhibition [8]: inactive
- inhibition [9]: inactive
- inhibition [10]: inactive
- inhibition [11]: inactive
- inhibition [12]: inactive
- inhibition [13]: inactive
- inhibition [14]: inactive
- inhibition [15]: inactive
- inhibition [17]: 44%
- inhibition [18]: inactive
- inhibition (Rattus norvegicus [20]): 100%
- IC50 (cells): 10 µM
- Kp (in vivo [21]): 2
- bioavailability (in vivo [22]): 37%
- half-life (in vivo [23]): 354 min
- Tmax (in vivo [24]): 30 min
- Cmax (in vivo [25]): 600 nM
- AUC (in vivo [26]): 2.1 µM·h
- AUC (in vivo [30]): 1.7 µM·h
- fraction unbound (in vitro [31]): 0.045
- inhibition in vivo at 100 µmol/kg (Rattus norvegicus [34]): 42%
- inhibition in vivo at 30 µmol/kg (Rattus norvegicus [35]): 26%
- inhibition in vivo at 140 µmol/kg (Rattus norvegicus [41]): 53%
- inhibition in vivo at 140 µmol/kg (Rattus norvegicus [36]): 84%
- inhibition in vivo at 100 µmol/kg (Rattus norvegicus [37]): 44%
- inhibition in vivo at 100 µmol/kg (Rattus norvegicus [38]): 56%
- inhibition in vivo at 30 µmol/kg (Rattus norvegicus [42]): 35%
- inhibition in vivo at 30 µmol/kg (Rattus norvegicus [39]): 25%

SMILES: O=C(NCc1ccccc1Br)C1c2ccccc2C(=O)N1CCc1ccccn1 (stereo not drawn)
- microsomal CLint (in vitro [32]): 300 µL/min/mg
- microsomal CLint (in vitro [33]): 20 µL/min/mg
- solubility at 4 h (physchem): 280 µM (≈ 126 µg/mL)

SMILES: O=C(NCc1ccc(OC(F)(F)F)cc1)C1c2ccccc2C(=O)N1CCN1CCOCC1 (stereo not drawn)
- microsomal CLint (in vitro [32]): 49 µL/min/mg
- microsomal CLint (in vitro [33]): < 10 µL/min/mg
- solubility at 4 h (physchem): 200 µM (≈ 92.7 µg/mL)

SMILES: O=C(NCc1cccc(OC(F)(F)F)c1)C1c2ccccc2C(=O)N1CCc1ncc(F)cn1 (stereo not drawn)
- bioavailability (in vivo [22]): 6%
- half-life (in vivo [23]): 486 min
- Tmax (in vivo [24]): 24 min
- Cmax (in vivo [25]): 90 nM
- AUC (in vivo [26]): 0.4 µM·h
- clearance (in vivo [27]): 29 mL/min/kg
- half-life (in vivo [28]): 24 min
- Vd (in vivo [29]): 0.7 L/kg
- AUC (in vivo [30]): 2.1 µM·h
- Papp (in vitro [40]): 50 ×10⁻⁶ cm/s
- fraction unbound (in vitro [31]): 0.18
- microsomal CLint (in vitro [32]): 180 µL/min/mg
- microsomal CLint (in vitro [33]): 28 µL/min/mg
- solubility at 4 h (physchem): 61 µM (≈ 28.9 µg/mL)

SMILES: N#CCCN1C(=O)c2ccccc2C1C(=O)NCc1ccc(OC(F)(F)F)cc1 (stereo not drawn)
- microsomal CLint (in vitro [32]): 11 µL/min/mg
- microsomal CLint (in vitro [33]): 16 µL/min/mg
- solubility at 4 h (physchem): 45 µM (≈ 18.2 µg/mL)

SMILES: O=C(NCc1ccc(Br)cc1)C1c2ccccc2C(=O)N1CCc1ccccn1 (stereo not drawn)
- microsomal CLint (in vitro [32]): 120 µL/min/mg
- microsomal CLint (in vitro [33]): 31 µL/min/mg
- solubility at 4 h (physchem): 57 µM (≈ 25.7 µg/mL)
